From PubChem BioAssay AID489006 (Sanford-Burnham Center for Chemical Genomics, 2010) come the findings set out here.

pIC50: −log10 of the molar value. The source made the active and inactive calls. No rule for the calls is given here.

The test deals with Jurkat NF-kB reporter, luminescence. Nature of the test: Jurkat NF-kB signaling inhibitors – cell-based, luminescence, selectivity assay for B-cell receptor NF-kB inhibitor project, dose response (AID 489006).
Broadly, the IC50 is the concentration that inhibits the measured activity by half. For the compound `Cc1ccc(C)c(OCc2ccc(C(=O)NN)o2)c1`, the IC50 is > 80 µM (inactive).

One may read the pIC50 as the IC50 on a negative log10 scale, so that one unit is a factor of ten. On to `C=CCOc1ccccc1CN(C(=O)CCl)c1ccc2c(c1)OCO2`, for which the pIC50 is 5.77.

Regarding `CCNC(=O)CCc1nc(-c2ccc(C(C)(C)C)cc2)no1`, the IC50 was > 80 µM (inactive).

Turning to `Cn1c(=O)n(C)c2cc(C(=O)Nc3ccc4c(c3)OCO4)ccc21`, the IC50 was > 80 µM (inactive).

With `NC(=S)N=Nc1c(O)n(Cc2ccccc2)c2ccccc12`, the IC50 is 23.9 µM (inactive).

On to `CCOc1ccc(-c2cc(CCCC(=O)NCCCOC)no2)cc1`, for which the IC50 is > 80 µM (inactive).

For the compound `Cc1ccc(-c2nn3c(C)nnc3c3ccccc23)cc1S(=O)(=O)NCc1ccco1`, the IC50 is 46.7 µM (inactive).

In the case of `COCCNC(=O)CSCc1nc(-c2ccc(SC)cc2)oc1C`, the IC50 was > 80 µM (inactive).

Consider `CCOc1ccc(/C=C2\SC(=S)N(CCC(=O)Nc3cccc(C(=O)O)c3)C2=O)cc1`, for which the IC50 was > 80 µM (inactive).

Regarding `Cc1nc2cc(-c3cccc(F)c3)nn2c(C)c1CCC(=O)N1CCC2(CC1)OCCO2`, the IC50 is 20.7 µM (inactive).

For the compound `Cn1nc(-c2ccc(N3CCOCC3)c(NS(=O)(=O)c3ccccc3)c2)c2ccccc2c1=O`, the IC50 was > 80 µM (inactive).

As for `CN(C)S(=O)(=O)c1ccc(NC(=O)N2CCN(c3ccccc3)CC2)cc1`, the IC50 is > 80 µM (inactive).

For `Cc1c(CCC(=O)O)c(=O)oc2cc3oc4c(c3cc12)CCCC4`, the pIC50 was 5.13.

`O=C(O)CCSc1ncnc2sc(-c3ccccc3)cc12`: the pIC50 was 5.97.

`CC(C)Cn1c([N+](=O)[O-])nc2c1c(=O)[nH]c(=O)n2C`: the pIC50 is 5.14.

Turning to `Cc1ccc(NC(=O)C2CCC(CNc3c(N4CCC(C)CC4)c(=O)c3=O)CC2)cc1F` (stereo not drawn), the IC50 was > 80 µM (inactive).

For `COc1ccc(NC(=O)c2cc3c(Cl)nc4ccccc4c3s2)cc1OC`, the IC50 was 61.9 µM (inactive).

`Cn1c(=O)cc(SCC(=O)N2CCCC2)c2cc(Cl)ccc21`: the IC50 is > 80 µM (inactive).

`C[C@H]1CCC/C=C/[C@@H]2C[C@H](O)C[C@H]2[C@H](O)/C=C/C(=O)O1`: the IC50 is > 80 µM (inactive).

Consider `Cc1cc(C)c(S(=O)(=O)NCc2ccncc2)c(C)c1`, for which the IC50 is > 80 µM (inactive).

`COc1ccccc1/C=C1/SC(=S)N(CCC(=O)Nc2cccnc2)C1=O`: the IC50 is > 80 µM (inactive).

In the case of `CC1CC(C)(C)Nc2ccc(OC(=O)c3ccco3)cc21` (stereo not drawn), the pIC50 is 5.50.

Consider `COc1ccc(-c2ccc(OC)c([C@H]3[C@H]4C=CC[C@@H](C)[C@@H]4C(=O)N3Cc3ccccc3)c2)cc1C`, for which the IC50 was > 80 µM (inactive).

On to `C=C1C(=O)[C@@]23C[C@H]4[C@@H]5[C@@]6(C)CCC[C@@]57[C@@H]2[C@@H](O)[C@@H]1C[C@H]3[C@H]7N4C6`, for which the pIC50 is 5.55.

`CCN(CC)CCCN=Cc1c(-c2ccccc2)[nH]n(-c2nc3ccccc3s2)c1=O`: the pIC50 was 5.12.

With `O=C(NCCC1CCCCN1S(=O)(=O)c1ccc(Cl)cc1)C(=O)NCc1ccncc1` (stereo not drawn), the IC50 was > 80 µM (inactive).

For `Cn1c(=O)c2c(SCC(=O)Nc3ccccc3F)nc(-c3ccccc3F)nc2n(C)c1=O`, the IC50 was > 80 µM (inactive).

On to `COc1cc(OC)cc(-c2cc3nc(C)c(CCC(=O)NCc4ccccc4)c(C)n3n2)c1`, for which the pIC50 is 5.56.

Take `O=C(O)COc1ccc(-c2nccc(-c3ccccn3)n2)cc1`: the pIC50 is 6.66.

As for `COc1ccc(OCc2cccc(C(=O)Nc3cc(C)on3)c2)cc1`, the pIC50 is 5.42.

With `Cc1noc(C)c1CSc1nc2[nH]ncc2c(=O)n1-c1ccccc1`, the IC50 is 34.3 µM (inactive).

Consider `Cc1ccc(/C=C2\SC(=S)N(CCCC(=O)Nc3ccc(O)cc3)C2=O)cc1`, for which the pIC50 is 4.72.

On to `Cc1ccc(S(=O)(=O)CC2CSc3nc4ccccc4n32)cc1` (stereo not drawn), for which the IC50 was > 80 µM (inactive).

Consider `Cc1ccc(-c2nsc3c(N4CCC(C(N)=O)CC4)ncnc23)cc1`, for which the IC50 was 78.1 µM (inactive).

With `COc1ccc(/C=N\NC(=O)c2sccc2C)cc1Cn1nc(C)cc1C`, the IC50 was > 80 µM (inactive).

For `CC(C)(C)c1ccc(-c2nnc(SCC(=O)NC3CC3)o2)cc1`, the IC50 is > 80 µM (inactive).

In the case of `O=C(CCCN1C(=O)S/C(=C\c2ccccc2)C1=O)NNC(=O)c1ccccc1O`, the pIC50 was 5.97.

On to `CC(C)C[C@@H](N)c1nnc(SCC(=O)c2ccc(Cl)cc2)o1`, for which the pIC50 is 4.95.

Regarding `CCc1cccc(NC(=O)c2ccc(CNc3c(N4CCCC4)c(=O)c3=O)cc2)c1`, the IC50 was > 80 µM (inactive).

Take `COc1ccccc1/C=C1\SC(=S)N(CCC(=O)Nc2cc(C)on2)C1=O`: the IC50 is 54.7 µM (inactive).

As for `Cc1c(CCO)c(=O)oc2n[nH]c(-c3ccccc3)c12`, the IC50 was > 80 µM (inactive).

On to `C(=N\Nc1nc(Nc2ccccc2)nc(N2CCOCC2)n1)/c1c[nH]c2ccccc12`, for which the IC50 was 37.7 µM (inactive).

On to `Cn1c(=O)cc(Nc2ccccc2)c2c(=O)n(-c3ccccc3)c(=O)n(-c3ccccc3)c21`, for which the IC50 was 71.9 µM (inactive).

On to `CN(CC1CCCO1)S(=O)(=O)c1ccc(C(=O)Nc2nc3cc4c(cc3s2)OCO4)cc1` (stereo not drawn), for which the IC50 was > 80 µM (inactive).

As for `ClCc1nnc(-c2ccccc2)o1`, the pIC50 was 4.98.

For the compound `C(=N\Nc1nc(Nc2ccccc2)nc(Nc2ccccc2)n1)/c1cccnc1`, the IC50 was > 80 µM (inactive).

As to `CC1Cc2ccccc2N1S(=O)(=O)c1cnc(Cl)c(Br)c1` (stereo not drawn), the IC50 was 27.2 µM (inactive).

On to `COc1ccc(OC)c(NC(=O)c2[nH]c(C)c(C(C)=O)c2C)c1`, for which the IC50 was > 80 µM (inactive).

Turning to `O=C(N/N=C/c1cccnc1)c1cc(-c2ccccc2OCc2ccccc2)n[nH]1`, the IC50 was > 80 µM (inactive).

For `CN1C(=O)c2cccc3c(S(=O)(=O)Nc4ccccc4F)ccc1c23`, the IC50 was 35.8 µM (inactive).

For the compound `COc1ccc(-c2ccc(F)cc2)cc1[C@H]1[C@H]2C=CC[C@@H](C)[C@@H]2C(=O)N1Cc1ccccc1`, the IC50 was > 80 µM (inactive).

Take `Cc1ccc(-c2cc(C(=O)NCCCN3CCOCC3)no2)cc1`: the pIC50 was 4.82.

Take `Cc1ccc(C(=O)C[n+]2cc(-c3ccc(C)cc3)n3c2CCCCC3)cc1`: the pIC50 was 5.08.

With `CCn1c(=O)cc(OCC(=O)N(C)C2CCCCC2)c2ccccc21`, the IC50 was > 80 µM (inactive).

In the case of `O=C(O)CCn1c(O)c(C=C2N=c3ccccc3=N2)sc1=S`, the pIC50 is 5.84.

Consider `Cc1ccc(CSc2nnc(SCC(=O)N/N=C/C=C/c3ccccc3[N+](=O)[O-])s2)cc1`, for which the IC50 was 67 µM (inactive).

As for `Cc1ccc(/C=C2\SC(=S)N(CCCC(=O)Nc3cccnc3)C2=O)cc1`, the pIC50 was 5.21.

In the case of `CCn1c(=O)cc(OCC(=O)NCc2ccc(C)o2)c2ccccc21`, the IC50 was > 80 µM (inactive).

Regarding `COc1ccc(/C=C2\SC(=S)N(CCC(=O)Nc3cccc(O)c3)C2=O)cc1`, the IC50 was > 80 µM (inactive).

In the case of `CCOc1ccc(-c2nnc(SCC(=O)Nc3cc(C)on3)o2)cc1`, the pIC50 is 5.82.

For `CCCCOc1ccc(NC(=O)C(=O)NCCCn2ccnc2)cc1`, the IC50 was > 80 µM (inactive).

For the compound `Cc1nc2cc(-c3ccccc3)nn2c(C)c1CCC(=O)NCc1ccco1`, the IC50 was > 80 µM (inactive).

Turning to `COc1cc(/C=N/Nc2nc(Nc3ccccc3)nc(N3CCOCC3)n2)ccc1OC(=O)c1ccco1`, the IC50 is > 80 µM (inactive).

Regarding `CCc1ccc(-c2nc(CSCC(=O)NC3CC3)c(C)o2)cc1`, the IC50 is 38.5 µM (inactive).

On to `Cc1cc(=O)[nH]c2c(C)cc(S(=O)(=O)N3CCCCC3)cc12`, for which the IC50 is > 80 µM (inactive).

As to `Oc1[nH]c2ccccc2c1N=Nc1nc(Nc2ccccc2)nc(N2CCOCC2)n1`, the pIC50 is 5.03.

On to `COc1ccc(NC(=O)c2nnn(Cc3cccc(F)c3)c2N)c(OC)c1`, for which the IC50 is > 80 µM (inactive).

For `CCc1ccc(/C=C2\SC(=S)N(CCC(=O)Nc3cc(C)on3)C2=O)cc1`, the pIC50 is 5.39.

Turning to `COc1ccc(/C=C2\SC(=S)N(CCCC(=O)NNC(=O)c3ccccc3O)C2=O)cc1`, the negative logarithm of the IC50 (pIC50) is 6.24.

For the compound `O=S(=O)(c1cnc(Cl)c(Cl)c1)N1CCCc2ccccc21`, the pIC50 is 4.73.

For the compound `Cc1nn(C)c(C)c1CN(C)S(=O)(=O)c1ccc2ccccc2c1`, the IC50 was > 80 µM (inactive).

For `C#CCN(Cc1ccccc1)S(=O)(=O)C=C`, the pIC50 was 5.03.

`CCN1C(=O)c2cccc3c(S(=O)(=O)Nc4ccccn4)ccc1c23`: the IC50 was 40.5 µM (inactive).

For the compound `Cn1nc(-c2ccc(Cl)cc2)c2cc(C(=O)N3CCCC3)sc21`, the IC50 is > 80 µM (inactive).

Turning to `Cc1ccc(O)c(NC(=O)COc2cc(C)ccc2C)c1`, the IC50 is > 80 µM (inactive).

As to `Cc1cccc(C(=O)Nc2ccc(CC(=O)O)cc2)c1`, the pIC50 is 5.13.

For the compound `CC(C)(C)c1ccc(-c2noc(CCC(=O)N3CCOCC3)n2)cc1`, the IC50 was > 80 µM (inactive).

For `Cc1cc(OCC(=O)N2CCC(C(N)=O)CC2)c2c3c(c(=O)oc2c1)CCCC3`, the IC50 was > 80 µM (inactive).

In the case of `COc1ccc(OC)c(S(=O)(=O)Nc2ccc(-c3ccc4nnc(C)n4n3)cc2)c1`, the pIC50 is 4.94.

With `CCN1C(=O)c2cccc3c(S(=O)(=O)NCC4CCCO4)ccc1c23` (stereo not drawn), the IC50 is > 80 µM (inactive).

Consider `CCN(CC)c1ccc2cc(NC(=O)CCC(=O)O)c(=O)oc2c1`, for which the pIC50 is 6.34.

Take `CC(C)(C)c1ccc(-n2ncc3c2CCCC3NC(=O)C2(C(N)=O)CC2)cc1` (stereo not drawn): the IC50 is > 80 µM (inactive).

For the compound `O=C(Nc1ccccc1C(=O)Nc1nnc(C(F)(F)F)s1)c1ccccc1`, the IC50 is > 80 µM (inactive).

Take `CCCC(=O)Nc1ccc(Sc2ccc([N+](=O)[O-])cc2)cc1`: the pIC50 was 4.80.

In the case of `CC(C)CCNC(=O)CCCOc1cc(=O)n(C)c2ccccc12`, the IC50 was 70.4 µM (inactive).

Regarding `Cn1cnc([N+](=O)[O-])c1Sc1ccc([N+](=O)[O-])cc1`, the pIC50 was 5.08.

Regarding `COc1ccc(-c2nsc(SCC(=O)Nc3cc(C)on3)n2)cc1`, the IC50 was > 80 µM (inactive).

For `Cc1ccc(C2(c3ccc(C)cc3)CC2C(=O)Nc2ccc([N+](=O)[O-])cc2O)cc1` (stereo not drawn), the IC50 was 50.1 µM (inactive).
